In PubChem BioAssay (NCI):
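All cell lines were grown in 96-well plates and treated with compound for 48 hours. TGI marks complete inhibition of growth.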

What was measured:
Assay in all cases: NCI anticancer screen, dose series, 48 h
[1] = system: 786-0 renal
[2] = system: A549 NSCLC
[3] = system: ACHN renal
[4] = system: BT-549 breast
[5] = system: CAKI-1 renal
[6] = system: CCRF-CEM leukemia
[7] = system: COLO 205 colon
[8] = system: DU-145 prostate
[9] = system: EKVX NSCLC
[10] = system: HCC-2998 colon
[11] = system: HCT-116 colon
[12] = system: HCT-15 colon
[13] = system: HL-60(TB) leukemia
[14] = system: HOP-62 NSCLC
[15] = system: HS 578T breast
[16] = system: HT29 colon
[17] = system: IGROV1 ovarian
[18] = system: K-562 leukemia
[19] = system: KM12 colon
[20] = system: LOX IMVI melanoma
[21] = system: M14 melanoma
[22] = system: MALME-3M melanoma
[23] = system: MCF7 breast
[24] = system: MDA-MB-435
[25] = system: MDA-N
[26] = system: MOLT-4 leukemia
[27] = system: NCI-H23 lung
[28] = system: NCI-H460 lung
[29] = system: NCI-H522 lung
[30] = system: NCI/ADR-RES ovarian
[31] = system: OVCAR-3 ovarian
[32] = system: OVCAR-4 ovarian
[33] = system: OVCAR-5 ovarian
[34] = system: OVCAR-8 ovarian
[35] = system: PC-3 prostate
[36] = system: RPMI-8226 leukemia
[37] = system: SF-268 CNS
[38] = system: SF-295 CNS
[39] = system: SF-539 CNS
[40] = system: SK-MEL-2 melanoma
[41] = system: SK-MEL-28 melanoma
[42] = system: SK-MEL-5 melanoma
[43] = system: SK-OV-3 ovarian
[44] = system: SNB-19 CNS
[45] = system: SR leukemia
[46] = system: SW-620 colon
[47] = system: T-47D breast
[48] = system: U251 CNS
[49] = system: UACC-257 melanoma
[50] = system: UACC-62 melanoma
[51] = system: UO-31 renal
[52] = system: A498 renal
[53] = system: HOP-92 NSCLC
[54] = system: MDA-MB-231 breast
[55] = system: NCI-H226 lung
[56] = system: RXF 393 renal
[57] = system: SN12C renal
[58] = system: TK-10 renal
[59] = system: SNB-75 CNS

Cc1cc(OC(=O)Nc2cccc3ccccc23)c(C(C)C)cc1C(=S)Nc1ccccc1
TGI [1]: 56.6 µM
TGI [2]: > 100 µM
TGI [3]: 73.5 µM
TGI [4]: 32.1 µM
TGI [5]: 54.7 µM
TGI [6]: 27.5 µM
TGI [7]: 39.4 µM
TGI [8]: 82 µM
TGI [9]: 61.6 µM
TGI [10]: 38.8 µM
TGI [11]: 32.4 µM
TGI [12]: 29.2 µM
TGI [13]: 15.1 µM
TGI [14]: 34.9 µM
TGI [15]: 55.2 µM
TGI [16]: 35.8 µM
TGI [17]: 30.4 µM
TGI [18]: 43.2 µM
TGI [19]: 36.4 µM
TGI [20]: 28.7 µM
TGI [21]: 37 µM
TGI [22]: 36.8 µM
TGI [23]: 34.7 µM
TGI [24]: 33.5 µM
TGI [25]: 33.3 µM
TGI [26]: 52.4 µM
TGI [27]: 34.3 µM
TGI [28]: 47.1 µM
TGI [29]: 29.1 µM
TGI [30]: 52.1 µM
TGI [31]: 33.5 µM
TGI [32]: 35 µM
TGI [33]: 46 µM
TGI [34]: 28.8 µM
TGI [35]: 42.2 µM
TGI [36]: 75.8 µM
TGI [37]: 77.6 µM
TGI [38]: 36.8 µM
TGI [39]: 36.9 µM
TGI [40]: 28.3 µM
TGI [41]: 35.3 µM
TGI [42]: 27.9 µM
TGI [43]: 51.7 µM
TGI [44]: 71.3 µM
TGI [45]: 33.5 µM
TGI [46]: 43.3 µM
TGI [47]: 53.6 µM
TGI [48]: 35.4 µM
TGI [49]: 50.5 µM
TGI [50]: 26.5 µM
TGI [51]: 40.2 µM

N#CSC#CCCC#CSC#N
TGI [1]: 40.4 µM
TGI [52]: 37.7 µM
TGI [2]: 42 µM
TGI [3]: 31.4 µM
TGI [4]: 47.7 µM
TGI [5]: 33.7 µM
TGI [6]: > 100 µM
TGI [7]: 26.7 µM
TGI [8]: 28.3 µM
TGI [9]: 41.5 µM
TGI [10]: 34.3 µM
TGI [11]: 48.5 µM
TGI [12]: 34.8 µM
TGI [13]: > 100 µM
TGI [14]: 33.7 µM
TGI [53]: 39.5 µM
TGI [15]: 76.2 µM
TGI [16]: 45.8 µM
TGI [17]: 45.1 µM
TGI [18]: > 100 µM
TGI [19]: 34.9 µM
TGI [20]: 40.5 µM
TGI [21]: 26.4 µM
TGI [22]: 34.3 µM
TGI [23]: 48.2 µM
TGI [54]: 42 µM
TGI [24]: 56.2 µM
TGI [25]: 34.8 µM
TGI [26]: 6.92 µM
TGI [55]: 58.2 µM
TGI [27]: 42.1 µM
TGI [28]: 48.4 µM
TGI [29]: 13.6 µM
TGI [30]: 74.9 µM
TGI [31]: 51.8 µM
TGI [32]: 58.5 µM
TGI [33]: 40.3 µM
TGI [34]: 60.7 µM
TGI [35]: 48.3 µM
TGI [56]: 35.7 µM
TGI [37]: > 100 µM
TGI [38]: 32.7 µM
TGI [39]: 41.2 µM
TGI [40]: 43.1 µM
TGI [41]: 82 µM
TGI [42]: 34.8 µM
TGI [43]: 29.7 µM
TGI [57]: 31.9 µM
TGI [44]: 29 µM
TGI [45]: > 100 µM
TGI [46]: 38.7 µM
TGI [58]: 33.1 µM
TGI [48]: 30.5 µM
TGI [49]: 32.2 µM
TGI [50]: 31.8 µM
TGI [51]: 33.5 µM

O=c1[nH]c(=O)c2c3n(cc2[nH]1)CCCCC3
TGI [1]: > 100 µM
TGI [52]: > 100 µM
TGI [2]: > 100 µM
TGI [3]: > 100 µM
TGI [5]: > 100 µM
TGI [6]: > 100 µM
TGI [7]: > 100 µM
TGI [8]: > 100 µM
TGI [9]: > 100 µM
TGI [10]: > 100 µM
TGI [11]: > 100 µM
TGI [12]: > 100 µM
TGI [13]: > 100 µM
TGI [14]: > 100 µM
TGI [53]: > 100 µM
TGI [15]: > 100 µM
TGI [16]: > 100 µM
TGI [17]: > 100 µM
TGI [18]: > 100 µM
TGI [19]: > 100 µM
TGI [20]: > 100 µM
TGI [21]: > 100 µM
TGI [22]: > 100 µM
TGI [23]: > 100 µM
TGI [54]: > 100 µM
TGI [24]: > 100 µM
TGI [25]: > 100 µM
TGI [26]: > 100 µM
TGI [55]: > 100 µM
TGI [27]: > 100 µM
TGI [28]: > 100 µM
TGI [29]: > 100 µM
TGI [30]: > 100 µM
TGI [32]: > 100 µM
TGI [33]: > 100 µM
TGI [34]: > 100 µM
TGI [35]: > 100 µM
TGI [36]: > 100 µM
TGI [56]: > 100 µM
TGI [37]: > 100 µM
TGI [38]: > 100 µM
TGI [41]: > 100 µM
TGI [42]: > 100 µM
TGI [43]: > 100 µM
TGI [57]: > 100 µM
TGI [44]: > 100 µM
TGI [59]: > 100 µM
TGI [45]: > 100 µM
TGI [47]: > 100 µM
TGI [58]: > 100 µM
TGI [48]: > 100 µM
TGI [49]: > 100 µM
TGI [50]: > 100 µM
TGI [51]: > 100 µM

C=C1c2nc3ccccc3n2C=C(c2ccc(OC)cc2)N1c1ccc(OC)cc1
TGI [1]: > 100 µM
TGI [52]: 64.9 µM
TGI [2]: > 100 µM
TGI [3]: 25 µM
TGI [4]: 39.8 µM
TGI [5]: 19.3 µM
TGI [6]: > 100 µM
TGI [7]: > 100 µM
TGI [8]: > 100 µM
TGI [9]: > 100 µM
TGI [10]: > 100 µM
TGI [11]: 74.4 µM
TGI [12]: > 100 µM
TGI [13]: > 100 µM
TGI [53]: 85.5 µM
TGI [17]: 94.3 µM
TGI [18]: > 100 µM
TGI [19]: 44.9 µM
TGI [20]: > 100 µM
TGI [21]: > 100 µM
TGI [22]: 48.4 µM
TGI [23]: > 100 µM
TGI [54]: 75.9 µM
TGI [24]: > 100 µM
TGI [25]: > 100 µM
TGI [26]: > 100 µM
TGI [55]: 43.1 µM
TGI [27]: 78.2 µM
TGI [28]: > 100 µM
TGI [29]: > 100 µM
TGI [30]: 31.8 µM
TGI [31]: 32.2 µM
TGI [32]: > 100 µM
TGI [33]: > 100 µM
TGI [34]: 24.4 µM
TGI [35]: > 100 µM
TGI [36]: > 100 µM
TGI [56]: 29.8 µM
TGI [38]: 32.6 µM
TGI [39]: 64.8 µM
TGI [40]: > 100 µM
TGI [42]: 35.1 µM
TGI [43]: 63.4 µM
TGI [57]: 59 µM
TGI [44]: 33.9 µM
TGI [59]: 30.6 µM
TGI [45]: > 100 µM
TGI [46]: > 100 µM
TGI [58]: 24.3 µM
TGI [48]: 28.4 µM
TGI [49]: > 100 µM
TGI [50]: 51.8 µM
TGI [51]: 58.5 µM
